{"source": "patent US20250360235A1", "about": "“RADI[…] AND METHOD FOR RADIOLABELLING” (Telix Innovations SA, priority 2024, published 2025)", "test": "Radiochemical purity by HPLC over time after radiolabelling", "assay_type": "physicochemical", "method": "Table 1 to Table 5 show the results of various radiolabelling experiments on radiochemical purity and the chelation yield. The radiolabelling experiments in the tables are carried out as described in: • Example 1 for when the gallium-68 source is GE Liquid target generator and EZAG GalliaPharm generator; • Example 2 for when the gallium-68 source is IRE Galli Eo generator; • Example 3 for when the gallium-68 source is GE solid target generator;\nHowever, the experiments were carried out with the amount of ascorbic acid as indicated in the Tables 1 to 5, and the activity as indicated in the Tables 1 to 5. Radiochemical purities were measured at various times (T0, T1, T4, T6) after the radiolabelled experiments have been conducted.\nThe kits of Example 1, Example 2 or Example 3, with amounts of ascorbic acid as set out in Table 7 were used in the experiments for the ascorbic acid bracketing matrix. Three strengths of [^68Ga]Ga-PSMA-11 will be tested, i.e. 50 mCi/ml, 7 mCi/ml and 1 mCi/ml. Radiochemical purity was determined at different time points (TO, T1, T4 or T6), as set out in Table 7."}
{"smiles": "O=C([O-])CN(CCN(CC(=O)[O-])Cc1cc(CCC(=O)NCCCCCC(=O)NCCCC[C@H](NC(=O)N[C@@H](CCC(=O)O)C(=O)O)C(=O)O)ccc1[O-])Cc1cc(CCC(=O)O)ccc1[O-].[68Ga+3].[OH3+]", "note": "[[^68Ga]PSMA-11, gallium-68 radiolabelled Glu-urea-Lys-HBED-CC (gozetotide or PSMA-11)]", "values": [{"measurement": "Radiochemical Purity (HPLC) Ga-68 PSMA-11 (%)", "setting": "25 mg ascorbic acid, 46.0-46.1 mCi, 4.38-4.39 mCi/mL, EZAG GalliaPharm, n=2, T4 (4 h)", "value": "C (C = all results conform to specifications)"}, {"measurement": "Radiochemical Purity (HPLC) Ga-68 PSMA-11 (%)", "setting": "bracketing ~1 mCi/mL, 18.75 mg ascorbic acid, 8.9-11.5 mCi, 0.85-1.09 mCi/mL, IRE Galli Eo, average of 2, T0", "value": 100, "unit": "%"}, {"measurement": "Radiochemical Purity (HPLC) Ga-68 PSMA-11 (%)", "setting": "bracketing ~1 mCi/mL, 18.75 mg ascorbic acid, 8.9-11.5 mCi, 0.85-1.09 mCi/mL, IRE Galli Eo, average of 2, T1 (1 h)", "value": 100, "unit": "%"}, {"measurement": "Radiochemical Purity (HPLC) Ga-68 PSMA-11 (%)", "setting": "bracketing ~1 mCi/mL, 25 mg ascorbic acid, 8.8-12.7 mCi, 0.84-1.21 mCi/mL, 2 × IRE Galli Eo, average of 2, T0", "value": 99, "unit": "%"}, {"measurement": "Radiochemical Purity (HPLC) Ga-68 PSMA-11 (%)", "setting": "bracketing ~1 mCi/mL, 25 mg ascorbic acid, 8.8-12.7 mCi, 0.84-1.21 mCi/mL, 2 × IRE Galli Eo, average of 2, T1 (1 h)", "value": 100, "unit": "%"}, {"measurement": "Radiochemical Purity (HPLC) Ga-68 PSMA-11 (%)", "setting": "bracketing ~1 mCi/mL, 31.25 mg ascorbic acid, 15.2-26.9 mCi, 1.44-2.54 mCi/mL, EZAG GalliaPharm, average of 2, T0", "value": 100, "unit": "%"}, {"measurement": "Radiochemical Purity (HPLC) Ga-68 PSMA-11 (%)", "setting": "bracketing ~1 mCi/mL, 31.25 mg ascorbic acid, 15.2-26.9 mCi, 1.44-2.54 mCi/mL, EZAG GalliaPharm, average of 2, T1 (1 h)", "value": 100, "unit": "%"}, {"measurement": "Radiochemical Purity (HPLC) Ga-68 PSMA-11 (%)", "setting": "bracketing ~7 mCi/mL, 18.75 mg ascorbic acid, 51.0-58.0 mCi, 5.55-6.5 mCi/mL, IRE Galli Eo, average of 2, T0", "value": 100, "unit": "%"}, {"measurement": "Radiochemical Purity (HPLC) Ga-68 PSMA-11 (%)", "setting": "bracketing ~7 mCi/mL, 18.75 mg ascorbic acid, 51.0-58.0 mCi, 5.55-6.5 mCi/mL, IRE Galli Eo, average of 2, T4 (4 h)", "value": 100, "unit": "%"}, {"measurement": "Radiochemical Purity (HPLC) Ga-68 PSMA-11 (%)", "setting": "bracketing ~7 mCi/mL, 25 mg ascorbic acid, 51.6-74.4 mCi, 4.56-6.92 mCi/mL, 3 × GE Liquid Target, 3 × IRE Galli Eo, 3 × EZAG GalliaPharm, average of 9, T0", "value": 100, "unit": "%"}, {"measurement": "Radiochemical Purity (HPLC) Ga-68 PSMA-11 (%)", "setting": "bracketing ~7 mCi/mL, 25 mg ascorbic acid, 51.6-74.4 mCi, 4.56-6.92 mCi/mL, 3 × GE Liquid Target, 3 × IRE Galli Eo, 3 × EZAG GalliaPharm, average of 9, T4 (4 h)", "value": 100, "unit": "%"}, {"measurement": "Radiochemical Purity (HPLC) Ga-68 PSMA-11 (%)", "setting": "bracketing ~7 mCi/mL, 31.25 mg ascorbic acid, 61.5-62.0 mCi, 5.85-5.88 mCi/mL, EZAG GalliaPharm, average of 2, T0", "value": 100, "unit": "%"}, {"measurement": "Radiochemical Purity (HPLC) Ga-68 PSMA-11 (%)", "setting": "bracketing ~7 mCi/mL, 31.25 mg ascorbic acid, 61.5-62.0 mCi, 5.85-5.88 mCi/mL, EZAG GalliaPharm, average of 2, T4 (4 h)", "value": 100, "unit": "%"}, {"measurement": "Radiochemical Purity (HPLC) Ga-68 PSMA-11 (%)", "setting": "bracketing ~50 mCi/mL, 20 mg ascorbic acid, 514-544 mCi, 48.3-51.9 mCi/mL, GE Solid Target, average of 2, T0", "value": 100, "unit": "%"}, {"measurement": "Radiochemical Purity (HPLC) Ga-68 PSMA-11 (%)", "setting": "bracketing ~50 mCi/mL, 20 mg ascorbic acid, 514-544 mCi, 48.3-51.9 mCi/mL, GE Solid Target, average of 2, T6 (6 h)", "value": 100, "unit": "%"}, {"measurement": "Radiochemical Purity (HPLC) Ga-68 PSMA-11 (%)", "setting": "bracketing ~50 mCi/mL, 25 mg ascorbic acid, 537-551 mCi, 50.2-51.6 mCi/mL, GE Solid Target, average of 3, T0", "value": 100, "unit": "%"}, {"measurement": "Radiochemical Purity (HPLC) Ga-68 PSMA-11 (%)", "setting": "bracketing ~50 mCi/mL, 25 mg ascorbic acid, 537-551 mCi, 50.2-51.6 mCi/mL, GE Solid Target, average of 3, T6 (6 h)", "value": 100, "unit": "%"}, {"measurement": "Radiochemical Purity (HPLC) Ga-68 PSMA-11 (%)", "setting": "bracketing ~50 mCi/mL, 31.25 mg ascorbic acid, 500-544 mCi, 48.1-51.7 mCi/mL, GE Solid Target, average of 2, T0", "value": 100, "unit": "%"}, {"measurement": "Radiochemical Purity (HPLC) Ga-68 PSMA-11 (%)", "setting": "bracketing ~50 mCi/mL, 31.25 mg ascorbic acid, 500-544 mCi, 48.1-51.7 mCi/mL, GE Solid Target, average of 2, T6 (6 h)", "value": 100, "unit": "%"}, {"measurement": "Radiochemical Purity (HPLC) Ga-68 PSMA-11 (%)", "setting": "validation batches, 25 mg ascorbic acid, 51.6-62.7 mCi, 4.56-5.88 mCi/mL, IRE Galli Eo, average of 3, T0", "value": 100, "unit": "%"}, {"measurement": "Radiochemical Purity (HPLC) Ga-68 PSMA-11 (%)", "setting": "validation batches, 25 mg ascorbic acid, 51.6-62.7 mCi, 4.56-5.88 mCi/mL, IRE Galli Eo, average of 3, T4 (4 h)", "value": 100, "unit": "%"}, {"measurement": "Radiochemical Purity (HPLC) Ga-68 PSMA-11 (%)", "setting": "validation batches, 25 mg ascorbic acid, 51.6-62.7 mCi, 4.56-5.88 mCi/mL, IRE Galli Eo, n=3, T0", "value": "C (C = all results conform to specifications)"}, {"measurement": "Radiochemical Purity (HPLC) Ga-68 PSMA-11 (%)", "setting": "validation batches, 25 mg ascorbic acid, 51.6-62.7 mCi, 4.56-5.88 mCi/mL, IRE Galli Eo, n=3, T4 (4 h)", "value": "C (C = all results conform to specifications)"}, {"measurement": "Radiochemical Purity (HPLC) Ga-68 PSMA-11 (%)", "setting": "validation batches, 25 mg ascorbic acid, 53.3-74.4 mCi, 5.03-6.92 mCi/mL, GE Liquid target, average of 3, T0", "value": 99, "unit": "%"}, {"measurement": "Radiochemical Purity (HPLC) Ga-68 PSMA-11 (%)", "setting": "validation batches, 25 mg ascorbic acid, 53.3-74.4 mCi, 5.03-6.92 mCi/mL, GE Liquid target, average of 3, T4 (4 h)", "value": 100, "unit": "%"}, {"measurement": "Radiochemical Purity (HPLC) Ga-68 PSMA-11 (%)", "setting": "validation batches, 25 mg ascorbic acid, 53.3-74.4 mCi, 5.03-6.92 mCi/mL, GE Liquid target, n=3, T0", "value": "C (C = all results conform to specifications)"}, {"measurement": "Radiochemical Purity (HPLC) Ga-68 PSMA-11 (%)", "setting": "validation batches, 25 mg ascorbic acid, 53.3-74.4 mCi, 5.03-6.92 mCi/mL, GE Liquid target, n=3, T4 (4 h)", "value": "C (C = all results conform to specifications)"}, {"measurement": "Radiochemical Purity (HPLC) Ga-68 PSMA-11 (%)", "setting": "validation batches, 25 mg ascorbic acid, 65.0-66.4 mCi, 5.74-6.15 mCi/mL, EZAG GalliaPharm, average of 3, T0", "value": 100, "unit": "%"}, {"measurement": "Radiochemical Purity (HPLC) Ga-68 PSMA-11 (%)", "setting": "validation batches, 25 mg ascorbic acid, 65.0-66.4 mCi, 5.74-6.15 mCi/mL, EZAG GalliaPharm, average of 3, T4 (4 h)", "value": 100, "unit": "%"}, {"measurement": "Radiochemical Purity (HPLC) Ga-68 PSMA-11 (%)", "setting": "validation batches, 25 mg ascorbic acid, 65.0-66.4 mCi, 5.74-6.15 mCi/mL, EZAG GalliaPharm, n=3, T0", "value": "C (C = all results conform to specifications)"}, {"measurement": "Radiochemical Purity (HPLC) Ga-68 PSMA-11 (%)", "setting": "validation batches, 25 mg ascorbic acid, 65.0-66.4 mCi, 5.74-6.15 mCi/mL, EZAG GalliaPharm, n=3, T4 (4 h)", "value": "C (C = all results conform to specifications)"}, {"measurement": "Radiochemical Purity (HPLC) Ga-68 PSMA-11", "setting": "validation batches, 25 mg ascorbic acid, 537-551 mCi, 50.2-51.6 mCi/mL, GE Solid Target, average of 3, T0", "value": 100, "unit": "%"}, {"measurement": "Radiochemical Purity (HPLC) Ga-68 PSMA-11", "setting": "validation batches, 25 mg ascorbic acid, 537-551 mCi, 50.2-51.6 mCi/mL, GE Solid Target, average of 3, T6 (6 h)", "value": 100, "unit": "%"}, {"measurement": "Radiochemical Purity (HPLC) Ga-68 PSMA-11", "setting": "validation batches, 25 mg ascorbic acid, 537-551 mCi, 50.2-51.6 mCi/mL, GE Solid Target, n=3, T0", "value": "C (C = all results conform to specifications)"}, {"measurement": "Radiochemical Purity (HPLC) Ga-68 PSMA-11", "setting": "validation batches, 25 mg ascorbic acid, 537-551 mCi, 50.2-51.6 mCi/mL, GE Solid Target, n=3, T6 (6 h)", "value": "C (C = all results conform to specifications)"}, {"measurement": "Radiochemical Purity (HPLC) Ga-68 PSMA-11", "setting": "validation batches, 25 mg ascorbic acid, 555-564 mCi, 51.1-52.7 mCi/mL, ARTMS Solid Target, average of 3, T0", "value": 99, "unit": "%"}, {"measurement": "Radiochemical Purity (HPLC) Ga-68 PSMA-11", "setting": "validation batches, 25 mg ascorbic acid, 555-564 mCi, 51.1-52.7 mCi/mL, ARTMS Solid Target, average of 3, T6 (6 h)", "value": 100, "unit": "%"}, {"measurement": "Radiochemical Purity (HPLC) Ga-68 PSMA-11", "setting": "validation batches, 25 mg ascorbic acid, 555-564 mCi, 51.1-52.7 mCi/mL, ARTMS Solid Target, n=3, T0", "value": "C (C = all results conform to specifications)"}, {"measurement": "Radiochemical Purity (HPLC) Ga-68 PSMA-11", "setting": "validation batches, 25 mg ascorbic acid, 555-564 mCi, 51.1-52.7 mCi/mL, ARTMS Solid Target, n=3, T6 (6 h)", "value": "C (C = all results conform to specifications)"}]}
